According to patent US8026359B2, “Fungicidal heterocyclic amines” (E.I. du Pont de Nemours and Company, priority 2007, dated 2011):

Columns and labels:
Assay type in all cases: in vivo
[1] = test system: Erysiphe graminis f. sp. tritici; experiment: Test A: wheat powdery mildew, preventive spray on wheat seedlings; conditions: 200 ppm, 100 = 100% disease control, 0 = no control relative to controls
From the text: (§1) General protocol for preparing test suspensions for Tests A-R: The test compounds were first dissolved in acetone in an amount equal to 3% of the final volume and then suspended at the desired concentration (in ppm) in acetone and purified water (50/50 mix) containing 250 ppm of the surfactant Trem® 014 (polyhydric alcohol esters). The resulting test suspensions were then used in tests A-R. In Tests A-M, compounds were sprayed as a 200 ppm test suspension (equivalent to a rate of 500 g/ha) or as a 40 ppm test suspension to the point of runoff on the test plants. In Tests N-R, compounds were sprayed as a 100 g/ha test suspension (equivalent to a rate of 100 ppm) on the test plants at an application volume of 1000 L/ha. The test suspension was sprayed to the point of run-off on wheat seedlings.

[2] = test system: Puccinia recondita f. sp. tritici; experiment: Test B: wheat leaf rust, preventive spray on wheat seedlings; conditions: 200 ppm, 100 = 100% disease control, 0 = no control relative to controls
From the text: as §1

Septoria nodorum = experiment: Test C: wheat glume blotch, preventive spray on wheat seedlings; conditions: 200 ppm, 100 = 100% disease control, 0 = no control relative to controls
From the text: as §1

Septoria tritici = experiment: Test D: wheat leaf blotch, preventive spray on wheat seedlings; conditions: 200 ppm, 100 = 100% disease control, 0 = no control relative to controls
From the text: as §1

Fusarium graminearum = experiment: whole plant or invertebrate; conditions: for Test E disease control rating: 200 ppm, 100 = 100% disease control, 0 = no control relative to controls
Botrytis cinerea = experiment: Test F: tomato Botrytis, preventive spray on tomato seedlings; conditions: 200 ppm, 100 = 100% disease control, 0 = no control relative to controls
From the text: as §1, with “tomato” for “wheat”

[3] = test system: Colletotrichum orbiculare; experiment: Test I: cucumber Colletotrichum anthracnose, preventive spray on cucumber seedlings; conditions: 100 = 100% disease control, 0 = no control relative to controls; for Test I disease control rating: 200 ppm
From the text: as §1, with “cucumber” for “wheat”

Compound	Test A disease control rating [1]	Test B disease control rating [2]	Test C disease control rating (Septoria nodorum)	Test D disease control rating (Septoria tritici)	Test E disease control rating (Fusarium graminearum)	Test F disease control rating (Botrytis cinerea)	Test I disease control rating [3]	pest or weed control at 200 ppm ([1]; Blumeria graminis, 192 h, read-out: Test A disease control rating)	pest or weed control at 200 ppm ([2]; Puccinia recondita, 192 h, read-out: Test B disease control rating)	pest or weed control at 200 ppm (Septoria nodorum; Parastagonospora nodorum, 216 h, read-out: Test C disease control rating)	pest or weed control at 200 ppm (Septoria tritici; Zymoseptoria tritici, 504 h, read-out: Test D disease control rating)	pest or weed control at 200 ppm (Fusarium graminearum; Fusarium graminearum, in Triticum aestivum, 192 h, read-out: Test E disease control rating)	pest or weed control at 200 ppm (Botrytis cinerea; Botrytis cinerea, 120 h, read-out: Test F disease control rating)	pest or weed control at 200 ppm ([3]; Colletotrichum orbiculare, 144 h, read-out: Test I disease control rating)
COCC(C)Nc1nccc(-c2ccnc(Nc3ccccc3F)c2)n1 (centres unmarked) [Compound 53]	88%	98%	96%	41%	0%	99%	26%	–	–	–	–	–	–	–
Clc1cccc(Nc2cc(-c3ccnc(NC4CCOCC4)n3)ccn2)c1 [Compound 69, 4-[2-[(3-chlorophenyl)amino]-4-pyridinyl]-N-(tetrahydro-2H-pyran-4-yl)-2-pyrimidinamine]	–	–	–	–	–	–	–	91%	94%	97%	77%	0%	85%	0%
C[C@H](CO)Nc1nccc(-c2ccnc(Nc3cccc(F)c3)c2)n1 [Compound 57]	0%	95%	51%	9%	0%	0%	0%	–	–	–	–	–	–	–
CC(C)Nc1nccc(-c2ccnc(Nc3cccc(F)c3)c2)n1 [Compound 60]	97%	95%	100%	18%	0%	61%	0%	–	–	–	–	–	–	–
COCCNc1nccc(-c2ccnc(Nc3cccc(F)c3)c2)n1 [Compound 58]	44%	98%	99%	36%	0%	86%	24%	–	–	–	–	–	–	–
Fc1cccc(Nc2cc(-c3ccnc(N[C@H]4CCOC4)n3)ccn2)c1 [Compound 71]	0%	94%	99%	25%	0%	77%	46%	–	–	–	–	–	–	–
COCC(C)Nc1nccc(-c2ccnc(Nc3c(C)cccc3C)c2)n1 (centres unmarked) [Compound 77]	95%	99%	99%	61%	92%	88%	96%	–	–	–	–	–	–	–
COCC(C)Nc1nccc(-c2ccnc(Nc3c(C)ccc4ccccc34)c2)n1 (centres unmarked) [Compound 86]	27%	55%	94%	0%	0%	96%	0%	–	–	–	–	–	–	–
